Measured values published in US8685999B2, “Beta carboline sulphonylurea derivatives as EP4 receptor antagonists” (Merck Sharp & Dohme Corp., priority 2008, dated 2014).

biological target: T1, EP4 (Homo sapiens, UniProt P35408); assay: Prostanoid receptor binding assay (radioligand displacement binding assay); details: column marked X when IC50 < 1; read-out: IC50 (nm) X < 1
T1 construct: expressed in transfected cells; membranes prepared by differential centrifugation
Description: Prostanoid receptor cDNAs corresponding to full length coding sequences are subcloned into the appropriate sites of mammalian expression vectors and transfected into HEK 293(ebna) cells. HEK 293(ebna) cells expressing the individual cDNAs are grown under selection and individual colonies are isolated after 2-3 weeks of growth using the cloning ring method and subsequently expanded into clonal cell lines.
Transfected HEK 293(ebna) cells are maintained in culture, harvested and membranes are prepared by differential centrifugation, following lysis of the cells in the presence of protease inhibitors, for use in receptor binding assays. Prostanoid receptor binding assays (for DP1, DP2 (CRTH2), EP1, EP2, EP3-III, EP4, FP, IP, and TP) are performed in 10 mM MES/KOH (pH 6.0) (EPs, FP and TP) or 10 mM HEPES/KOH (pH 7.4) (DPs and IP), containing 1 mM EDTA, 2.5-30 mM divalent cation and the appropriate radio-ligand. Synthetic compounds are added in DMSO which is kept constant at 1% (v/v) in all incubations. The reaction is initiated by addition of membrane protein. Non-specific binding is determined in the presence of 10 μM of the corresponding non-radioactive prostanoid. Incubations are conducted for 60-120 min at room temperature or 30° C. and terminated by rapid filtration. Specific binding is calculated by subtracting non specific binding from total binding. The residual specific binding at each ligand concentration is calculated and expressed as a function of ligand concentration in order to construct sigmoidal concentration-response curves. The binding affinity of the compounds is determined by calculating the equilibrium inhibition constant (Ki) from the equation Ki=InPt/1+[radio-ligand]/Kd where Kd is the equilibrium dissociation constant for the radio-ligand:receptor interaction and InPt is the inflection point of the dose-response curves.
Abramovitz, M. et al., Biochem, Biophys. Acta, 2000, 1483, pp. 285.

T1 sequence (P35408 whole entry): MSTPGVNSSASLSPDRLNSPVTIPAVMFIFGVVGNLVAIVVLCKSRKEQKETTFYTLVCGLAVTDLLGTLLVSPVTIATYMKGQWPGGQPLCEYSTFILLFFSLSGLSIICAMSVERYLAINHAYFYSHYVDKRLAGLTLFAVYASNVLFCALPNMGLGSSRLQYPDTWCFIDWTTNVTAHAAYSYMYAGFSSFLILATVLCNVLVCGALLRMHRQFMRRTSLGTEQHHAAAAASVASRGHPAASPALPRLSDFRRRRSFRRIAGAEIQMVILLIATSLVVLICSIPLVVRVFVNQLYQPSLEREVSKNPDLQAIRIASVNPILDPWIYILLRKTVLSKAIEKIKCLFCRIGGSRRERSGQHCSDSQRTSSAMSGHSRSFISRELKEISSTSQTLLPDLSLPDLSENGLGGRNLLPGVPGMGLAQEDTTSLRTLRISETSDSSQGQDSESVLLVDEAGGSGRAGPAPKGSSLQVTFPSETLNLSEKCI

| IC50 | SMILES |
| --- | --- |
| < 1 nM | CN1CCc2c(n(-c3ccc(CC4(NC(=O)NS(=O)(=O)c5ccc(Cl)cc5)CC4)cc3)c3ccc(-c4nnc(-c5ccccc5)o4)cc23)C1=O [Example 3-5, 4-chloro-N-{[(1-{4-[2-methyl-1-oxo-6-(5-phenyl-1,3,4-oxadiazol-2-yl)-1,2,3,4-tetrahydro-9H-beta-carbolin-9-yl]benzyl}cyclopropyl)amino]carbonyl}benzenesulfonamide] |
| < 1 nM | CCN1CCc2c(n(-c3ccc(CCNC(=O)NS(=O)(=O)c4ccc(Cl)cc4)cc3)c3cc(Cl)cc(Cl)c23)C1=O [Example 1-6, 4-chloro-N-[({2-[4-(5,7-dichloro-2-ethyl-1-oxo-1,2,3,4-tetrahydro-9H-beta-carbolin-9-yl)phenyl]ethyl}amino)carbonyl]benzenesulfonamide] |
| < 1 nM | CN1CCc2c(n(-c3ccc(CCNC(=O)NS(=O)(=O)c4ccc(Cl)cc4)cc3)c3ccc(C4CC4)cc23)C1=O [Example 2-2, 4-chloro-N-[({2-[4-(6-cyclopropyl-2-methyl-1-oxo-1,2,3,4-tetrahydro-9H-beta-carbolin-9-yl)phenyl]ethyl}amino)carbonyl]benzenesulfonamide] |
| < 1 nM | CN1CCc2c(n(-c3ccc(CC4(NC(=O)NS(=O)(=O)c5c(Cl)cccc5Cl)CC4)cc3)c3ccc(-c4ccccc4)cc23)C1=O [Example 1-29, 2,6-dichloro-N-[({1-[4-(2-methyl-1-oxo-6-phenyl-1,2,3,4-tetrahydro-9H-beta-carbolin-9-yl)benzyl]cyclopropyl}amino)carbonyl]benzenesulfonamide] |
| < 1 nM | CN1CCc2c(n(-c3ccc(CCNC(=O)NS(=O)(=O)c4ccc(Cl)cc4)cc3)c3ccc(-c4cccnc4)cc23)C1=O [Example 1-21, 4-chloro-N-[({2-[4-(2-methyl-1-oxo-6-pyridin-3-yl-1,2,3,4-tetrahydro-9H-beta-carbolin-9-yl)phenyl]ethyl}amino)carbonyl]benzenesulfonamide] |
| < 1 nM | Cc1ccc(S(=O)(=O)NC(=O)NCCc2ccc(-n3c4c(c5c(C)cc(C)cc53)CCN(C)C4=O)cc2)cc1 [Example 1-2, 4-methyl-N-[({2-[4-(2,5,7-trimethyl-1-oxo-1,2,3,4-tetrahydro-9H-beta-carbolin-9-yl)phenyl]ethyl}amino)carbonyl]benzenesulfonamide] |
| < 1 nM | CN1CCc2c(n(-c3ccc(CCNC(=O)NS(=O)(=O)c4ccc(Cl)cc4)cc3)c3ccc(-c4cccc(S(C)(=O)=O)c4)cc23)C1=O [Example 1-36, 4-chloro-N-({[2-(4-{2-methyl-6-[3-(methylsulfonyl)phenyl]-1-oxo-1,2,3,4-tetrahydro-9H-beta-carbolin-9-yl}phenyl)ethyl]amino}carbonyl)benzenesulfonamide] |
| < 1 nM | CN1CCc2c(n(-c3ccc(CCNC(=O)NS(=O)(=O)c4ccc(Cl)cc4)cc3)c3ccc(-c4ccccc4)cc23)C1=O [Example 1-8, 4-chloro-N-[({2-[4-(2-methyl-1-oxo-6-phenyl-1,2,3,4-tetrahydro-9H-beta-carbolin-9-yl)phenyl]ethyl}amino)carbonyl]benzenesulfonamide] |
| < 1 nM | CN1CCc2c(n(-c3ccc(CCNC(=O)NS(=O)(=O)c4ccc(Cl)cc4)cc3)c3ccc(-c4ccc(S(C)(=O)=O)cc4)cc23)C1=O [Example 1-35, 4-chloro-N-({[2-(4-{2-methyl-6-[4-(methylsulfonyl)phenyl]-1-oxo-1,2,3,4-tetrahydro-9H-beta-carbolin-9-yl}phenyl)ethyl]amino}carbonyl)benzenesulfonamide] |
| < 1 nM | CN1CCc2c(n(-c3ccc(CCNC(=O)NS(=O)(=O)c4ccc(Cl)cc4)cc3)c3ccc(S(C)(=O)=O)cc23)C1=O [Example 1-31, 4-chloro-N-{[(2-{4-[2-methyl-6-(methylsulfonyl)-1-oxo-1,2,3,4-tetrahydro-9H-beta-carbolin-9-yl]phenyl}ethyl)amino]carbonyl}benzenesulfonamide] |
| < 1 nM | CN1CCc2c(n(-c3ccc(CCNC(=O)NS(=O)(=O)c4ccc(Cl)cc4)cc3)c3cc(Cl)c(Cl)cc23)C1=O [Example 1-10, 4-chloro-N-[({2-[4-(6,7-dichloro-2-methyl-1-oxo-1,2,3,4-tetrahydro-9H-beta-carbolin-9-yl)phenyl]ethyl}amino)carbonyl]benzenesulfonamide] |
| < 1 nM | CN1CCc2c(n(-c3ccc(CC4(NC(=O)NS(=O)(=O)c5ccc(Cl)cc5)CC4)cc3)c3ccc(-c4ccn[nH]4)cc23)C1=O [Example 3-4, 4-chloro-N-{[(1-{4-[2-methyl-1-oxo-6-(1H-pyrazol-5-yl)-1,2,3,4-tetrahydro-9H-beta-carbolin-9-yl]benzyl}cyclopropyl)amino]carbonyl}benzenesulfonamide] |
| < 1 nM | Cc1cc(C)c2c3c(n(-c4ccc(CC5(NC(=O)NS(=O)(=O)c6ccc(Cl)cc6)CC5)cc4)c2c1)C(=O)N(C)CC3 [Example 1-28, 4-chloro-N-[({1-[4-(2,5,7-trimethyl-1-oxo-1,2,3,4-tetrahydro-9H-beta-carbolin-9-yl)benzyl]cyclopropyl}amino)carbonyl]benzenesulfonamide] |
| < 1 nM | CN1CCc2c(n(-c3ccc(CCNC(=O)NS(=O)(=O)c4ccc(Cl)cc4)cc3)c3cccc(Cl)c23)C1=O [Example 1-13, 4-chloro-N-[({2-[4-(5-chloro-2-methyl-1-oxo-1,2,3,4-tetrahydro-9H-beta-carbolin-9-yl)phenyl]ethyl}amino)carbonyl]benzenesulfonamide] |
| < 1 nM | CN1CCc2c(n(-c3ccc(CC4(NC(=O)NS(=O)(=O)c5ccc(Cl)cc5)CC4)cc3)c3ccc(-c4ccccc4F)cc23)C1=O [Example 1-23, 4-chloro-N-{[(1-{4-[6-(2-fluorophenyl)-2-methyl-1-oxo-1,2,3,4-tetrahydro-9H-beta-carbolin-9-yl]benzyl}cyclopropyl)amino]carbonyl}benzenesulfonamide] |
| < 1 nM | Cc1ccccc1-c1ccc2c(c1)c1c(n2-c2ccc(CC3(NC(=O)NS(=O)(=O)c4ccc(Cl)cc4)CC3)cc2)C(=O)N(C)CC1 [Example 1-27, 4-chloro-N-{[(1-{4-[2-methyl-6-(2-methylphenyl)-1-oxo-1,2,3,4-tetrahydro-9H-beta-carbolin-9-yl]benzyl}cyclopropyl)amino]carbonyl}benzenesulfonamide] |
| < 1 nM | CN1CCc2c(n(-c3ccc(CC4(NC(=O)NS(=O)(=O)c5ccc(Cl)cc5)CC4)cc3)c3ccc(C4CC4)cc23)C1=O [Example 2-1, 4-chloro-N-[({1-[4-(6-cyclopropyl-2-methyl-1-oxo-1,2,3,4-tetrahydro-9H-beta-carbolin-9-yl)benzyl]cyclopropyl}amino)carbonyl]benzenesulfonamide] |
| < 1 nM | CN1CCc2c(n(-c3ccc(CCNC(=O)NS(=O)(=O)c4ccc(Cl)cc4)cc3)c3ccc(Br)cc23)C1=O [Example 1-5, N-[({2-[4-(6-bromo-2-methyl-1-oxo-1,2,3,4-tetrahydro-9H-beta-carbolin-9-yl)phenyl]ethyl}amino)carbonyl]-4-chlorobenzenesulfonamide] |
| < 1 nM | CN1CCc2c(n(-c3ccc(CC4(NC(=O)NS(=O)(=O)c5ccc(Cl)cc5)CC4)cc3)c3ccc(-c4ccccn4)cc23)C1=O [Example 1-26, 4-chloro-N-[({1-[4-(2-methyl-1-oxo-6-pyridin-2-yl-1,2,3,4-tetrahydro-9H-beta-carbolin-9-yl)benzyl]cyclopropyl}amino)carbonyl]benzenesulfonamide] |
| < 1 nM | CN1CCc2c(n(-c3ccc(CCNC(=O)NS(=O)(=O)c4ccc(Cl)cc4)cc3)c3ccc(Cl)c(Cl)c23)C1=O [Example 1-11, 4-chloro-N-[({2-[4-(5,6-dichloro-2-methyl-1-oxo-1,2,3,4-tetrahydro-9H-beta-carbolin-9-yl)phenyl]ethyl}amino)carbonyl]benzenesulfonamide] |
| < 1 nM | CN1CCc2c(n(-c3ccc(CCNC(=O)NS(=O)(=O)c4ccc(Cl)cc4)cc3)c3cc(Cl)cc(Cl)c23)C1=O [Example 1-3, 4-chloro-N-[({2-[4-(5,7-dichloro-2-methyl-1-oxo-1,2,3,4-tetrahydro-9H-beta-carbolin-9-yl)phenyl]ethyl}amino)carbonyl]benzenesulfonamide] |
| < 1 nM | CN1CCc2c(n(-c3ccc(CCNC(=O)NS(=O)(=O)c4ccc(Cl)cc4)cc3)c3cc(C4CC4)ccc23)C1=O [Example 2-4, 4-chloro-N-[({2-[4-(7-cyclopropyl-2-methyl-1-oxo-1,2,3,4-tetrahydro-9H-beta-carbolin-9-yl)phenyl]ethyl}amino)carbonyl]benzenesulfonamide] |

same assay, conditions: column marked X when IC50 > 5; read-out: IC50 (nm) X > 5

| IC50 | SMILES |
| --- | --- |
| > 5 nM | CN1CCc2c(n(-c3ccc(CCNC(=O)NS(=O)(=O)c4ccc(Cl)cc4)cc3)c3cccc(S(C)(=O)=O)c23)C1=O [Example 1-33, 4-chloro-N-{[(2-{4-[2-methyl-5-(methylsulfonyl)-1-oxo-1,2,3,4-tetrahydro-9H-beta-carbolin-9-yl]phenyl}ethyl)amino]carbonyl}benzenesulfonamide] |

same assay, conditions: radioligand displacement binding assay; read-out: IC50

| IC50 | SMILES |
| --- | --- |
| > 5 nM | CN1CCc2c(n(-c3ccc(CCNC(=O)NS(=O)(=O)c4ccc(Cl)cc4)cc3)c3cccc(S(C)(=O)=O)c23)C1=O [Example 1-33, 4-chloro-N-{[(2-{4-[2-methyl-5-(methylsulfonyl)-1-oxo-1,2,3,4-tetrahydro-9H-beta-carbolin-9-yl]phenyl}ethyl)amino]carbonyl}benzenesulfonamide] |
